Reference: patent US20140064053A1, “NON-RESONANT TWO-PHOTON ABSORPTION MATERIAL, NON-RESONANT TWO-PHOTON ABSORPTION RECORDING MATERIAL, RECORDING MEDIUM, RECORDING/REPRODUCING METHOD AND NON-RESONANT TWO-PHOTON ABSORPTION COMPOUND” (FUJIFILM Corporation, priority 2011, published 2014)

Experiments:
[1] = Two-photon absorption cross-sectional area by the Z scanning method; type: physicochemical; conditions: measurement wavelength 405 nm; chloroform solution, about 1×10^−3 mol/l; 1 GM = 1 × 10^−50 cm^4 s molecule^−1 photon^−1
Method: The measurement of the two-photon absorption cross-sectional area of the synthesized compound was performed by the Z scanning method described in MANSOOR SHEIK-BAHAE et al., IEEE. Journal of Quantum Electronics, 1990, 26, 760. The Z scanning method is a method widely used as the measuring method of a non-linear optical constant, where in the vicinity of the focus of converged laser beam, a measurement sample is moved along the beam and the change in the quantity of transmitted light is recorded. Since the power density of incident light changes depending upon the position of the sample, when non-linear absorption is present, the quantity of transmitted light attenuates in the vicinity of the focus. The two-photon absorption cross-sectional area was computed by fitting the change in the quantity of transmitted light to a theoretical curve predicted from the incident light intensity, the light converging spot size, the sample thickness and the sample concentration. As the light source for the measurement of two-photon absorption cross-sectional area, a Ti:sapphire pulsed laser (pulse width: 100 fs, repetition: 80 MHz, average output: 1 W, peak power: 100 kW) obtained by combining a […] and a light parametric amplifier was used. As the sample for the measurement of two-photon absorption cross-sectional area, a solution obtained by dissolving the compound in chloroform in a concentration of about 1×10^−3 mol/l was used.
The two-photon absorption cross-sectional areas of Compounds D-1, D-2, D-6 and D-29 of the present invention and Comparative Compound R-1 [recited as Compound D-1 in Patent Document 5 (JP-A-2010-108588)] are shown in Table 1 below.

[2] = Evaluation of solubility of two-photon absorption compound in dichloromethane; type: physicochemical; conditions: invention compounds compared with Comparative Compound R-1
Method: Compounds D-1, D-2, D-6 and D-29 of the present invention and Comparative Compound R-1 for dichloromethane were evaluated for the solubility (room temperature).

Two-Photon Absorption Cross-Sectional Area [1] [GM] | Solubility (in words) [2] | Compound
2000 | high solubility | COc1cc(-c2ccc(-c3ccc(C(=O)c4ccc(OCCOCCOC(C)=O)c(OCCOCCOC(C)=O)c4)cc3)c(OC)c2)ccc1-c1ccc(C(=O)c2ccc(OCCOCCOC(C)=O)c(OCCOCCOC(C)=O)c2)cc1 [Compound D-29]
1700 | low | N#Cc1ccc(-c2ccc(-c3ccc(-c4ccc(C(=O)c5ccccc5)cc4)cc3)cc2)cc1 [Compound R-1, reference compound]

The next lines start with the molecule.

Compound | Two-Photon Absorption Cross-Sectional Area [1] [GM] | Solubility (in words) [2]
CCCCC(CC)COc1ccc(C(=O)c2ccc(-c3ccc(-c4ccc(-c5ccc(C#N)cc5)c(OC)c4)cc3OC)cc2)cc1 [Compound D-6] | 1140 | high solubility
COCCOCCOCCOCCOCCOc1ccc(C(=O)c2ccc(-c3ccc(-c4ccc(-c5ccc(C#N)cc5)cc4)cc3)cc2)cc1 [Compound D-2] | 860 | high solubility
CCCCC(CC)COc1ccc(C(=O)c2ccc(-c3ccc(-c4ccc(-c5ccc(C#N)cc5)cc4)cc3)cc2)cc1 [Compound D-1] | 900 | high solubility
